The record followed here is patent US20110312984A1, “STAT3 INHIBITORS” (priority 2008, published 2011).

The test relates to triple negative human breast cancer xenograft. Description: Triple-negative human breast cancer xenograft, MSFE after two days of treatment. In kind it is in vivo, SCID Beige mice. The following applies: 250 mcg, n=3, P<0.05. An excerpt:
A tumor line derived from a “triple negative” (ER-negative, PgR-negative, and HER-2 negative) human breast cancer biopsy specimen was transplanted into immunocompromised SCID Beige mice. The animals (n=3) received two doses of vehicle control, 2 different doses of Cpd 188 (125 or 250 mcg), a G-quartet oligodeoxynucleotide (GQ-ODN, T40214; GQ-I) previously determined to target Stat3 (Jing et al., 2004) and a control non-specific ODN (GQ-II) each at two doses (125 or 250 mcg). The animals were sacrificed after only two days of treatment, and MSFE determined.
Xenograft assays. One can use two xenografts developed from human breast cancer biopsies that express activated p-Stat3 by IHC. From these established xenograft lines, for each of the top 5 inhibitors, the following studies may be undertaken: a) short term experiments with stem cell inhibitors at two doses vs. vehicle control and b) the optimal dose of the combination of chemotherapy with each of the five stem cell inhibitors.
a) Short term (2-day) experiments: One can test the five inhibitors at 2 doses. […]
b) Long-term (2-week studies) experiments: One can assess the effect of the self-renewal inhibitor on tumor growth and stem cell behavior. […] Size of the xenografts is monitored longitudinally by caliper measurement using the RECIST criteria for assessment of tumor response. […]
Background: Xenograft models place foreign cells or tissue in a host animal.

On to `O=C(O)CSc1cc(NS(=O)(=O)c2ccc(C(=O)O)cc2)c2ccccc2c1O` [Cpd188, 4-[({3-[(carboxymethyl)thio]-4-hydroxy-1-naphthyl}amino)sulfonyl]benzoic acid], for which the “reduction in MSFE compared to control” value is reported as “significant reduction”.
